This is an account of results in patent US12122763B2, “Substituted piperidines for androgen receptor degradation” (UBIX THERAPEUTICS, INC., priority 2020, dated 2024).

The structures appear in SMILES notation.

This assay concerns the target T1, Androgen Receptor (AR) protein (Homo sapiens, UniProt P10275, T878A).
T1 construct: endogenous in cells; host or cells: LNCaP
Kind of assay: Androgen Receptor (AR) protein degradation assay in LNCaP cells, western blotting. It is filed as cell-based. The following applies: 20 h; for inhibition at 0.01 µM: 0.01 μM compound; for inhibition at 0.1 µM: 0.1 μM compound; for inhibition at 1 µM: 1 μM compound. An outline of the steps:
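AR protein level was detected by western blot (ECL) against GAPDH or β-actin controls, with 8 μg lysate protein loaded per lane after BCA quantification. Lysates came from LNCaP cells exposed to test compound for 20 h, following 3 days of growth in RPMI/10% FBS.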
Background: Immunoblotting shows a protein as a band on a membrane.

T1 sequence (P10275 whole entry T878A): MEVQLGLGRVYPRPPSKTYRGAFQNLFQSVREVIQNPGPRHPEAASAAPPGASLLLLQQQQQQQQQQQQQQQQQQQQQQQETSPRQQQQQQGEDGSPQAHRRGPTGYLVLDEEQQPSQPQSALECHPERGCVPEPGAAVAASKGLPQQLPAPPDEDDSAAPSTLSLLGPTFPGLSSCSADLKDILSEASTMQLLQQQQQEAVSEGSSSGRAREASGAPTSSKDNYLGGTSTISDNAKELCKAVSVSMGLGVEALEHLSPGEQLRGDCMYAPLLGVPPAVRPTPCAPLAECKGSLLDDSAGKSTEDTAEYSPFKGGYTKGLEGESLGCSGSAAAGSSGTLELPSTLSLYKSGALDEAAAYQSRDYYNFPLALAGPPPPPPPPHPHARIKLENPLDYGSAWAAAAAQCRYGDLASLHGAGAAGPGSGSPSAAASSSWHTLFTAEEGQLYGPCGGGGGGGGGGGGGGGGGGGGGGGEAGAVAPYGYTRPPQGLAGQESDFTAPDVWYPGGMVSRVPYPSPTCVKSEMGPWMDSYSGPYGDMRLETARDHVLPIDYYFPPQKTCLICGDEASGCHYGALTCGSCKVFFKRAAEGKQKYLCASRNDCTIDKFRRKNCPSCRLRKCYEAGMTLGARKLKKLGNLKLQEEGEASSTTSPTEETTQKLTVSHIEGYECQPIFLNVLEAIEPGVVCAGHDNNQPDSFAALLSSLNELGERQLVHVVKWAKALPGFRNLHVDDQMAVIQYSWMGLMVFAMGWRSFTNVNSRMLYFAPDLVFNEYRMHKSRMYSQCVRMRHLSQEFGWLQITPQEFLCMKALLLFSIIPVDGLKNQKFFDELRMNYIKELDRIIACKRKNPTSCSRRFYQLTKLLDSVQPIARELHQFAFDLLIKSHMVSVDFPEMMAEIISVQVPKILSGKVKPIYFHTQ
T1 sequence (Q96SW2 whole entry partner): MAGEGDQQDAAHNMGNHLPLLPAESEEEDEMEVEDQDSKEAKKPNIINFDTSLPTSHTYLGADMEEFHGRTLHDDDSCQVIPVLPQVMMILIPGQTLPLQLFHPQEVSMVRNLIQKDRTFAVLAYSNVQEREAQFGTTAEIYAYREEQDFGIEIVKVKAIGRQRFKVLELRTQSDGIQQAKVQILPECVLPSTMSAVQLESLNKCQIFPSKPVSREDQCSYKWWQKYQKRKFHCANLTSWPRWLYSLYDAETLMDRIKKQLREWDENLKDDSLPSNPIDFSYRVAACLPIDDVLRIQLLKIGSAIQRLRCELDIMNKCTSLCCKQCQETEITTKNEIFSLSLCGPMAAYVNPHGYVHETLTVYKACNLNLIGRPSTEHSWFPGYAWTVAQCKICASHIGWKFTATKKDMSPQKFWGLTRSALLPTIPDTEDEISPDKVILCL

As usually defined, the inhibition is the relative decrease from the control value, in per cent. `N#Cc1ccc(N2CCC(C(=O)Nc3ccc(N4CCC(CN5CC6CN(c7ccc8c(c7)C(=O)N(C7CCC(=O)NC7=O)C8=O)CC6C5)CC4)cn3)CC2)cc1C(F)(F)F` (stereo not shown) [Example 85, 1-(4-cyano-3-(trifluoromethyl)phenyl)-N-(5-(4-((5-(2-(2,6-dioxopiperidin-3-yl)-1,3-dioxoisoindolin-5-yl)hexahydropyrrolo[3,4-c]pyrrol-2(1H)-yl)methyl)piperidin-1-yl)pyridin-2-yl)piperidine-4-carboxamide] showed an inhibition at 0.01 µM of 24%, an inhibition at 0.1 µM of 89% and an inhibition at 1 µM of 92%.
In turn, `N#Cc1ccc(N2CCC(C(=O)Nc3ccc(N4CCC(OCCN5CCN(c6ccc7c(c6)C(=O)N(C6CCC(=O)NC6=O)C7=O)CC5)CC4)cn3)CC2)cc1C(F)(F)F` (stereo not shown) [Example 150, 1-(4-cyano-3-(trifluoromethyl)phenyl)-N-(5-(4-(2-(4-(2-(2,6-dioxopiperidin-3-yl)-1,3-dioxoisoindolin-5-yl)piperazin-1-yl)ethoxy)piperidin-1-yl)pyridin-2-yl)piperidine-4-carboxamide] displayed an inhibition at 0.01 µM of 55%, an inhibition at 0.1 µM of 97% and an inhibition at 1 µM of 99%.
Turning to `N#Cc1ccc(N2CCC(C(=O)Nc3ccc(N4CCC(CCN5CC(N6CCN(c7ccc8c(n7)CN(C7CCC(=O)NC7=O)C8=O)CC6)C5)CC4)cn3)CC2)cc1C(F)(F)F` (stereo not shown) [Example 98, 1-(4-cyano-3-(trifluoromethyl)phenyl)-N-(5-(4-(2-(3-(4-(6-(2,6-dioxopiperidin-3-yl)-5-oxo-6,7-dihydro-5H-pyrrolo[3,4-b]pyridin-2-yl)piperazin-1-yl)azetidin-1-yl)ethyl)piperidin-1-yl)pyridin-2-yl)piperidine-4-carboxamide], at 0.01 µM the inhibition was 48%, testing at 0.1 µM gave an inhibition of 89% and 1 µM produced 76% inhibition.
As to `N#Cc1ccc(N2CCC(C(=O)Nc3ccc(CCN4CCC(CN5CCN(c6cc7c(cc6F)C(=O)N(C6CCC(=O)NC6=O)C7=O)CC5)CC4)cn3)CC2)cc1C(F)(F)F` (stereo not shown) [Example 189, 1-(4-cyano-3-(trifluoromethyl)phenyl)-N-(5-(2-(4-((4-(2-(2,6-dioxopiperidin-3-yl)-6-fluoro-1,3-dioxoisoindolin-5-yl)piperazin-1-yl)methyl)piperidin-1-yl)ethyl)pyridin-2-yl)piperidine-4-carboxamide], the inhibition at 0.01 µM stood at 8% and the inhibition at 0.1 µM came out at 79%.
With `N#Cc1ccc(N2CCC(F)(C(=O)Nc3ccc(N4CCC(CN5CCN(C6CCN(c7ccc8c(c7)CN(C7CCC(=O)NC7=O)C8=O)CC6)CC5)CC4)cn3)CC2)cc1C(F)(F)F` (stereo not shown) [Example 141, 1-(4-cyano-3-(trifluoromethyl)phenyl)-N-(5-(4-((4-(1-(2-(2,6-dioxopiperidin-3-yl)-1-oxoisoindolin-5-yl)piperidin-4-yl)piperazin-1-yl)methyl)piperidin-1-yl)pyridin-2-yl)-4-fluoropiperidine-4-carboxamide], at 0.01 µM the inhibition was 66%, at 0.1 µM the inhibition was 92% and testing at 1 µM gave an inhibition of 90%.
Take `N#Cc1ccc(N2CCC(F)(C(=O)Nc3ccc(N4CCC(CN5CCN(C6CCN(c7ccc8c(c7)C(=O)N(C7CCC(=O)NC7=O)C8=O)CC6)CC5)CC4)cn3)CC2)cc1C(F)(F)F` (stereo not shown) [Example 72, 1-(4-cyano-3-(trifluoromethyl)phenyl)-N-(5-(4-((4-(1-(2-(2,6-dioxopiperidin-3-yl)-1,3-dioxoisoindolin-5-yl)piperidin-4-yl)piperazin-1-yl)methyl)piperidin-1-yl)pyridin-2-yl)-4-fluoropiperidine-4-carboxamide]: at 0.01 µM the inhibition was 59%, the inhibition at 0.1 µM was 94% and the inhibition at 1 µM amounted to 97%.
Compound `N#Cc1ccc(N2CCC(C(=O)Nc3ccc(N4CCC(CN5CCC(Oc6ccc7c(c6)C(=O)N(C6CCC(=O)NC6=O)C7=O)CC5)CC4)cn3)CC2)cc1C(F)(F)F` (stereo not shown) [Example 146, 1-(4-cyano-3-(trifluoromethyl)phenyl)-N-(5-(4-((4-((2-(2,6-dioxopiperidin-3-yl)-1,3-dioxoisoindolin-5-yl)oxy)piperidin-1-yl)methyl)piperidin-1-yl)pyridin-2-yl)piperidine-4-carboxamide] came in with an inhibition at 0.01 µM of 67%, an inhibition at 0.1 µM of 97% and an inhibition at 1 µM of 98%.
The corresponding values for `N#Cc1ccc(N2CCC(C(=O)Nc3ccc(N4CC(CN5CCN(CC6CN(c7ccc8c(c7)C(=O)N(C7CCC(=O)NC7=O)C8=O)C6)CC5)C4)cn3)CC2)cc1C(F)(F)F` (stereo not shown) [Example 30, 1-(4-cyano-3-(trifluoromethyl)phenyl)-N-(5-(3-((4-((1-(2-(2,6-dioxopiperidin-3-yl)-1,3-dioxoisoindolin-5-yl)azetidin-3-yl)methyl)piperazin-1-yl)methyl)azetidin-1-yl)pyridin-2-yl)piperidine-4-carboxamide] are 78%, 99% and 97%.
For `C[C@@H]1CN(CC2CCN(c3ccc4c(n3)CN(C3CCC(=O)NC3=O)C4=O)CC2)CCN1CC1CCN(c2ccc(NC(=O)C3CCN(c4ccc(C#N)c(C(F)(F)F)c4)CC3)nc2)CC1` (stereo partly drawn) [Example 44, 1-(4-cyano-3-(trifluoromethyl)phenyl)-N-(5-(4-(((2R)-4-((1-(6-(2,6-dioxopiperidin-3-yl)-5-oxo-6,7-dihydro-5H-pyrrolo[3,4-b]pyridin-2-yl)piperidin-4-yl)methyl)-2-methylpiperazin-1-yl)methyl)piperidin-1-yl)pyridin-2-yl)piperidine-4-carboxamide], the inhibition at 0.01 µM amounted to 80%, the inhibition at 0.1 µM came out at 98% and the inhibition at 1 µM is 93%.
In the case of `N#Cc1ccc(N2CCC(C(=O)Nc3ccc(N4CCC(CCN5CCC6(CC5)CN(c5ccc7c(c5)C(=O)N(C5CCC(=O)NC5=O)C7=O)C6)CC4)cn3)CC2)cc1C(F)(F)F` (stereo not shown) [Example 95, 1-(4-cyano-3-(trifluoromethyl)phenyl)-N-(5-(4-(2-(2-(2-(2,6-dioxopiperidin-3-yl)-1,3-dioxoisoindolin-5-yl)-2,7-diazaspiro[3.5]nonan-7-yl)ethyl)piperidin-1-yl)pyridin-2-yl)piperidine-4-carboxamide], 0.01 µM produced 62% inhibition, the inhibition at 0.1 µM came to 96% and 1 µM produced 97% inhibition.
Turning to `N#Cc1ccc(N2CCC(C(=O)Nc3ccc(N4CCC(CN5CCN(C6CCN(c7ccc8c(c7)CN(C7CCC(=O)NC7=O)C8=O)CC6)CC5)CC4)cn3)CC2)cc1C(F)(F)F` (stereo not shown) [Example 140, 1-(4-cyano-3-(trifluoromethyl)phenyl)-N-(5-(4-((4-(1-(2-(2,6-dioxopiperidin-3-yl)-1-oxoisoindolin-5-yl)piperidin-4-yl)piperazin-1-yl)methyl)piperidin-1-yl)pyridin-2-yl)piperidine-4-carboxamide], the inhibition at 0.01 µM stood at 87%, the inhibition at 0.1 µM came out at 98% and the inhibition at 1 µM stood at 95%.
Compound `C[C@@H]1CN(CC2CN(c3ccc4c(c3)C(=O)N(C3CCC(=O)NC3=O)C4=O)C2)CCN1CC1CN(c2ccc(NC(=O)C3CCN(c4ccc(C#N)c(C(F)(F)F)c4)CC3)nc2)C1` (stereo partly drawn) [Example 31, 1-(4-cyano-3-(trifluoromethyl)phenyl)-N-(5-(3-(((2R)-4-((1-(2-(2,6-dioxopiperidin-3-yl)-1,3-dioxoisoindolin-5-yl)azetidin-3-yl)methyl)-2-methylpiperazin-1-yl)methyl)azetidin-1-yl)pyridin-2-yl)piperidine-4-carboxamide] yielded an inhibition at 0.01 µM of 67%, an inhibition at 0.1 µM of 99% and an inhibition at 1 µM of 97%.
Take `N#Cc1ccc(N2CCC(C(=O)Nc3ccc(N4CCN(CCCCCOc5ccc6c(c5)C(=O)N(C5CCC(=O)NC5=O)C6=O)CC4)cn3)CC2)cc1Cl` (stereo not shown) [Example 114, 1-(3-chloro-4-cyanophenyl)-N-(5-(4-(5-((2-(2,6-dioxopiperidin-3-yl)-1,3-dioxoisoindolin-5-yl)oxy)pentyl)piperazin-1-yl)pyridin-2-yl)piperidine-4-carboxamide]: the inhibition at 0.01 µM is 41%, the inhibition at 0.1 µM was found to be 89% and the inhibition at 1 µM amounted to 91%.
`N#Cc1ccc(N2CCC(C(=O)Nc3ccc(N4CCC(CN5CC(N6CCN(c7ccc8c(c7)C(=O)N(C7CCC(=O)NC7=O)C8=O)CC6)C5)CC4)cn3)CC2)cc1C(F)(F)F` (stereo not shown) [Example 77, 1-(4-cyano-3-(trifluoromethyl)phenyl)-N-(5-(4-((3-(4-(2-(2,6-dioxopiperidin-3-yl)-1,3-dioxoisoindolin-5-yl)piperazin-1-yl)azetidin-1-yl)methyl)piperidin-1-yl)pyridin-2-yl)piperidine-4-carboxamide] gave an inhibition at 0.01 µM of 46%, an inhibition at 0.1 µM of 96% and an inhibition at 1 µM of 97%.
The corresponding values for `N#Cc1ccc(N2CCC(C(=O)Nc3ccc(OC4CCN(CC5CCN(c6cc7c(cc6F)C(=O)N(C6CCC(=O)NC6=O)C7=O)CC5)CC4)cn3)CC2)cc1C(F)(F)F` (stereo not shown) [Example 170, 1-(4-cyano-3-(trifluoromethyl)phenyl)-N-(5-((1-((1-(2-(2,6-dioxopiperidin-3-yl)-6-fluoro-1,3-dioxoisoindolin-5-yl)piperidin-4-yl)methyl)piperidin-4-yl)oxy)pyridin-2-yl)piperidine-4-carboxamide] are 52%, 90% and 97%.
Take `N#Cc1ccc(N2CCC(C(=O)Nc3ccc(CN4CCC(CN5CCN(c6cc7c(cc6F)C(=O)N(C6CCC(=O)NC6=O)C7=O)CC5)CC4)cn3)CC2)cc1C(F)(F)F` (stereo not shown) [Example 188, 1-(4-cyano-3-(trifluoromethyl)phenyl)-N-(5-((4-((4-(2-(2,6-dioxopiperidin-3-yl)-6-fluoro-1,3-dioxoisoindolin-5-yl)piperazin-1-yl)methyl)piperidin-1-yl)methyl)pyridin-2-yl)piperidine-4-carboxamide]: the inhibition at 0.01 µM worked out at 1% and the inhibition at 0.1 µM was found to be 45%.
